The text below walks through data of ChEMBL document CHEMBL4813993, “Design and synthesis of diosgenin derivatives as apoptosis inducers through mitochondria-related pathways” (Eur J Med Chem, 2021).

Bounds are passed on as bounds.

One assay has as its system K562. Briefly: Cytotoxicity against human K562 cells assessed as inhibition of cell growth incubated for 48 hrs by CCK-8 assay. It is filed as functional, cell-based. The conditions noted are these: K562, 48 h. (In general: Tetrazolium dyes change colour on reduction, which living cells bring about.)
Assay [1] relates to A549. Briefly: Cytotoxicity against human A549 cells assessed as inhibition of cell growth incubated for 48 hrs by CCK-8 assay. The following applies: A549, 48 h. It is filed as functional, cell-based.
The subject of assay [2] is T-24. Briefly: Cytotoxicity against human T24 cells assessed as inhibition of cell growth incubated for 48 hrs by CCK-8 assay. Format: functional, cell-based. The conditions noted are these: T-24, 48 h.
Another assay relates to MCF7. Briefly: Cytotoxicity against human MCF7 cells assessed as inhibition of cell growth incubated for 48 hrs by CCK-8 assay. The conditions noted are these: MCF7, 48 h. It is filed as functional, cell-based.
In the next assay the test system is HepG2. Nature of the assay: Cytotoxicity against human HepG2 cells assessed as inhibition of cell growth incubated for 48 hrs by CCK-8 assay. Format: functional, cell-based. The following applies: HepG2, 48 h.
The subject of assay [3] is MKN-45. Nature of the assay: Cytotoxicity against human MNK45 cells assessed as inhibition of cell growth incubated for 48 hrs by CCK-8 assay. The following applies: MKN-45, 48 h. It is filed as functional, cell-based.
In assay [4] the test system is A549. Briefly: Potency index, ratio of diosgenin IC50 to test compound IC50 for cytotoxicity against human A549 cells assessed as inhibition of cell growth incubated for 48 hrs by CCK-8 assay. It is filed as functional.
Assay [5] relates to MKN-45. Nature of the assay: Potency index, ratio of diosgenin IC50 to test compound IC50 for cytotoxicity against human MNK45 cells assessed as inhibition of cell growth incubated for 48 hrs by CCK-8 assay. It is filed as functional.
Assay [6] deals with T-24. Nature of the assay: Potency index, ratio of diosgenin IC50 to test compound IC50 for cytotoxicity against human T24 cells assessed as inhibition of cell growth incubated for 48 hrs by CCK-8 assay. Format: functional.

Take `CC(=O)O[C@H]1CC[C@@]2(C)C(=CC[C@H]3[C@@H]4C[C@@H]5O[C@H](CC[C@@H](C)COC(=O)[C@@H](N)Cc6ccccc6)[C@@H](C)[C@@H]5[C@@]4(C)CC[C@@H]32)C1`: the IC50 is 15.8 µM with K562; 27.2 µM in the assay on A549 [1]; 8.22 µM with T-24 [2]; > 30 µM in the assay on MCF7; 18.8 µM with HepG2; > 30 µM in the assay with MKN-45 [3].

As to `C[C@@H]1CC[C@@]2(OC1)O[C@H]1C[C@H]3[C@@H]4CC=C5C[C@@H](O)CC[C@]5(C)[C@H]4CC[C@]3(C)[C@H]1[C@@H]2C` [DISOGENIN], the 50% inhibitory concentration (IC50) in the assay with K562 came out at 30 µM; with A549 [1] it was 32.9 µM; with T-24 [2], 28.9 µM; in the assay on MCF7, 28.5 µM; in the assay with HepG2 it was 48.4 µM; in the assay on MKN-45 [3] it was 78.3 µM.

`CC(=O)O[C@H]1CC[C@@]2(C)C(=CC[C@H]3[C@@H]4C[C@@H]5O[C@H](CC[C@@H](C)COC(=O)[C@H](C)N)[C@@H](C)[C@@H]5[C@@]4(C)CC[C@@H]32)C1`: the IC50 in the assay on K562 is 17.5 µM; with A549 [1] it was 27.6 µM; in the assay on T-24 [2] it was 11.4 µM; in the assay on MCF7, > 30 µM; with HepG2 it was > 30 µM; in the assay with MKN-45 [3] it was 10.7 µM.

For the compound `O=c1[nH]cc(F)c(=O)[nH]1` [FLUOROURACIL], the IC50 with K562 was 20.2 µM; with T-24 [2], 12.9 µM; in the assay on MCF7, 18.6 µM; in the assay on HepG2, 18.9 µM; in the assay on MKN-45 [3], 21.4 µM.

As for `CC(=O)O[C@H]1CC[C@@]2(C)C(=CC[C@H]3[C@@H]4C[C@@H]5O[C@H](CC[C@@H](C)COC(=O)[C@@H](N)CC(C)C)[C@@H](C)[C@@H]5[C@@]4(C)CC[C@@H]32)C1`, the IC50 in the assay with K562 is 11.5 µM; in the assay with A549 [1], > 30 µM; in the assay with T-24 [2] it was 5.67 µM; in the assay on MCF7, 21.2 µM; in the assay on HepG2 it was 12.9 µM; with MKN-45 [3], 12.1 µM.

On to `CC(=O)O[C@H]1CC[C@@]2(C)C(=CC[C@H]3[C@@H]4C[C@@H]5O[C@H](CC[C@@H](C)COC(=O)[C@@H](N)C(C)C)[C@@H](C)[C@@H]5[C@@]4(C)CC[C@@H]32)C1`, for which the IC50 with K562 came to 6.77 µM; in the assay with A549 [1], 4.92 µM; in the assay on T-24 [2] it was 4.94 µM; in the assay with MCF7 it was 17.8 µM; with HepG2 it was 12.3 µM; in the assay on MKN-45 [3] it was 7.01 µM. Besides, the “Ratio IC50” value with A549 [4] is given as 6.7.

In the case of `CC(=O)O[C@H]1CC[C@@]2(C)C(=CC[C@H]3[C@@H]4C[C@@H]5O[C@H](CC[C@@H](C)COC(=O)CN)[C@@H](C)[C@@H]5[C@@]4(C)CC[C@@H]32)C1`, the IC50 in the assay on K562 is 15.2 µM; in the assay with A549 [1], > 30 µM; in the assay on T-24 [2] it was 10.4 µM; in the assay on MCF7, > 30 µM; in the assay with HepG2, > 30 µM; in the assay with MKN-45 [3], 17.3 µM.

In the case of `C[C@@H]1CC[C@@]2(OC1)O[C@H]1C[C@H]3[C@@H]4CC=C5C[C@@H](OC(=O)[C@@H]6CCCN6)CC[C@]5(C)[C@H]4CC[C@]3(C)[C@H]1[C@@H]2C`, the IC50 with K562 amounted to 7.47 µM; with A549 [1] it was 20.6 µM; in the assay with T-24 [2], 9.65 µM; with MCF7, 11.4 µM; in the assay on HepG2, 16.4 µM; with MKN-45 [3], 5.47 µM.

`C[C@@H]1CC[C@@]2(OC1)O[C@H]1C[C@H]3[C@@H]4CC=C5C[C@@H](OC(=O)[C@@H](N)Cc6c[nH]c7ccccc67)CC[C@]5(C)[C@H]4CC[C@]3(C)[C@H]1[C@@H]2C`: the IC50 in the assay with K562 was found to be 8.47 µM; in the assay on A549 [1], 12.9 µM; in the assay with T-24 [2], 7.06 µM; with MCF7 it was 9.6 µM; in the assay on HepG2 it was 17 µM; with MKN-45 [3], 5.21 µM. Besides, the entries for the “Ratio IC50” value with MKN-45 [5] and with T-24 [6] were 15 and 4.1, respectively.

For `CC(C)[C@H](N)C(=O)O[C@H]1CC[C@@]2(C)C(=CC[C@H]3[C@@H]4C[C@@H]5O[C@]6(CC[C@@H](C)CO6)[C@@H](C)[C@@H]5[C@@]4(C)CC[C@@H]32)C1`, the IC50 with K562 is 16.5 µM; in the assay on A549 [1] it was 23 µM; in the assay on T-24 [2] it was 11.8 µM; in the assay on MCF7, > 30 µM; in the assay with HepG2, 27.7 µM; in the assay with MKN-45 [3], 13.4 µM.

As for `CC(=O)O[C@H]1CC[C@@]2(C)C(=CC[C@H]3[C@@H]4C[C@@H]5O[C@H](CC[C@@H](C)COC(=O)[C@@H]6CCCN6)[C@@H](C)[C@@H]5[C@@]4(C)CC[C@@H]32)C1`, the IC50 in the assay on K562 is 27.7 µM; in the assay on A549 [1], 22.3 µM; in the assay with T-24 [2], 12.2 µM; in the assay on MCF7 it was > 30 µM; with HepG2, 18.5 µM; with MKN-45 [3], 17.3 µM.

In the case of `C[C@@H]1CC[C@@]2(OC1)O[C@H]1C[C@H]3[C@@H]4CC=C5C[C@@H](OC(=O)[C@@H](N)Cc6ccccc6)CC[C@]5(C)[C@H]4CC[C@]3(C)[C@H]1[C@@H]2C`, the IC50 is 8.59 µM in the assay on K562; > 30 µM in the assay with A549 [1]; 10.6 µM in the assay with T-24 [2]; 25.4 µM in the assay on MCF7; 26.1 µM with HepG2; 11.4 µM with MKN-45 [3].

Take `C[C@@H]1CC[C@@]2(OC1)O[C@H]1C[C@H]3[C@@H]4CC=C5C[C@@H](OC(=O)[C@H](C)N)CC[C@]5(C)[C@H]4CC[C@]3(C)[C@H]1[C@@H]2C`: the IC50 in the assay on K562 was 15.5 µM; with A549 [1], 18.1 µM; with T-24 [2], 9.1 µM; with MCF7, > 30 µM; in the assay on HepG2, > 30 µM; in the assay with MKN-45 [3], 11.5 µM.

Take `CC(C)C[C@H](N)C(=O)O[C@H]1CC[C@@]2(C)C(=CC[C@H]3[C@@H]4C[C@@H]5O[C@]6(CC[C@@H](C)CO6)[C@@H](C)[C@@H]5[C@@]4(C)CC[C@@H]32)C1`: the IC50 with K562 is 10.5 µM; with A549 [1] it was > 30 µM; with T-24 [2], 8.83 µM; in the assay with MCF7, > 30 µM; in the assay on HepG2 it was > 30 µM; in the assay with MKN-45 [3], 10.4 µM.

With `C[C@@H]1CC[C@@]2(OC1)O[C@H]1C[C@H]3[C@@H]4CC=C5C[C@@H](OC(=O)CN)CC[C@]5(C)[C@H]4CC[C@]3(C)[C@H]1[C@@H]2C` [GLYCINE DIOSGENYL ESTER], the IC50 in the assay on K562 amounted to 7.68 µM; in the assay on A549 [1], 18 µM; in the assay on T-24 [2], 9.98 µM; in the assay with MCF7, 10.3 µM; with HepG2 it was 14.9 µM; in the assay with MKN-45 [3], 16.2 µM.

What is called IC50 is the concentration at which inhibition is half-maximal.
